Laboratory results taken from US20250092043A1, “Kinase Inhibitors and Degraders” (Incyte Corporation, priority 2023, published 2025).

Target: T1, JAK2 (Homo sapiens, UniProt O60674, V617F)
T1 construct: their effect on JAK2 protein degradation in SET2 cells; host or cells: SET2 cells (human essential thrombocythemia)
Assay: Western blot quantitation of JAK2 degradation in SET2 cells
Type: cell-based
Details: 8 hours treatment, western blot densitometry vs. DMSO vehicle
Description: Example E. Western Blot Analysis of JAK2 Dependent SET2 Cells Treated with Compounds of the Present Disclosure
SET2 cells (DSMZ, catalog number ACC 608) are isolated from a person with human essential thrombocythemia and carry the JAK2 V617F mutation.
SET2 cells were cultured in RPMI culture medium (Gibco, catalog number 11875085) supplemented with 1% penicillin-streptomycin-glutamine (Thermo Fisher Scientific, catalog number 10378016) and 20% fetal bovine serum (Gibco, catalog number 10438034). Cultured cells were maintained at 37° C., 5% CO2 in the incubator.
Approximately 1,000,000 cells/well were added in 6-well plate containing 1.5 ml culture media with specified concentrations of compounds of the present disclosure or DMSO control. Cells were treated with concentrations of 10 uM, 5 uM, 1 uM, and 0.5 uM. Proteasome inhibitor MG-132 (Cell signaling, catalog number 2194) was added at 20 uM to an additional 10 uM compound treatment. The treatment period was 8 hours. After 8 hours, cells were collected in 1.5 mL microcentrifuge tubes. Tubes were centrifuged at 1500 rpm for 5 min. Supernatant was aspirated and samples were washed with 1 mL of cold PBS. The samples were centrifuged again at 1500 rpm for 5 min, supernatant was aspirated. The sample pellets were lysed using 150 μL of 1× lysing buffer (Cell Signaling Technologies—catalog number 9803S) supplemented with 1× Halt™ Protease and Phosphatase Inhibitor Cocktail (Thermo Fisher Scientific—catalog number 78447). Using Pierce™ BCA Protein Assay Kit (Thermo Fisher Scientific—catalog number 23225), protein concentration of the samples were quantitated. After normalizing sample concentration to approximately 20 ug/well, samples were loaded onto 4-12% Tris-glycine gels. Gels were transferred to nitrocellulose membranes using iBlot 2 Dry Blotting System and iBlot™ 2 Transfer Stacks, nitrocellulose (Thermo Fisher Scientific—catalog number IB23001). Following transfer, membranes were blocked with StartingBlock (Thermo Fisher Scientific—catalog number 37543). After 1 hour of blocking membranes, they were probed for JAK2, pSTAT5, STAT5, CRBN, and GAPDH (Cell Signaling—catalog numbers 3230, 4322, 25656, 71810, and 5174 respectively).
Compounds of the present disclosure were screened at various concentrations to determine their effect on JAK2 protein degradation in SET2 cells, using methods as described above. DMSO was used as the vehicle control with no PROTAC® added. Co-administration of 20 μM of the proteasome inhibitor MG-132 with the PROTAC® compound at its highest concentration (i.e., 5 or 10 μM) tested was conducted to support the hypothesis that the degradation was driven by the ubiquitin-proteosome system (UPS). Degradation was evaluated by western blot densitometry quantitation using the FluorChem M instrument software to analyze the intensity of the JAK2 band signal at various concentrations of PROTAC® compound vs. the JAK2 band signal of the DMSO vehicle. It is noted that ˜82% of JAK2 exists as the V617F mutant, with the remaining 18% of JAK2 being WT. Therefore, if the V617F mutant JAK2 is selectively degraded over the WT, the maximum degradation is ˜80%. Degradation was graded as A: […]; B: ≥40% to <60% degradation; C: ≥20% to <40% degradation, D: <20% to ≥10%; E<10%. ** refers to degradation at 0.5 μM.

T1 sequence (O60674 whole entry V617F): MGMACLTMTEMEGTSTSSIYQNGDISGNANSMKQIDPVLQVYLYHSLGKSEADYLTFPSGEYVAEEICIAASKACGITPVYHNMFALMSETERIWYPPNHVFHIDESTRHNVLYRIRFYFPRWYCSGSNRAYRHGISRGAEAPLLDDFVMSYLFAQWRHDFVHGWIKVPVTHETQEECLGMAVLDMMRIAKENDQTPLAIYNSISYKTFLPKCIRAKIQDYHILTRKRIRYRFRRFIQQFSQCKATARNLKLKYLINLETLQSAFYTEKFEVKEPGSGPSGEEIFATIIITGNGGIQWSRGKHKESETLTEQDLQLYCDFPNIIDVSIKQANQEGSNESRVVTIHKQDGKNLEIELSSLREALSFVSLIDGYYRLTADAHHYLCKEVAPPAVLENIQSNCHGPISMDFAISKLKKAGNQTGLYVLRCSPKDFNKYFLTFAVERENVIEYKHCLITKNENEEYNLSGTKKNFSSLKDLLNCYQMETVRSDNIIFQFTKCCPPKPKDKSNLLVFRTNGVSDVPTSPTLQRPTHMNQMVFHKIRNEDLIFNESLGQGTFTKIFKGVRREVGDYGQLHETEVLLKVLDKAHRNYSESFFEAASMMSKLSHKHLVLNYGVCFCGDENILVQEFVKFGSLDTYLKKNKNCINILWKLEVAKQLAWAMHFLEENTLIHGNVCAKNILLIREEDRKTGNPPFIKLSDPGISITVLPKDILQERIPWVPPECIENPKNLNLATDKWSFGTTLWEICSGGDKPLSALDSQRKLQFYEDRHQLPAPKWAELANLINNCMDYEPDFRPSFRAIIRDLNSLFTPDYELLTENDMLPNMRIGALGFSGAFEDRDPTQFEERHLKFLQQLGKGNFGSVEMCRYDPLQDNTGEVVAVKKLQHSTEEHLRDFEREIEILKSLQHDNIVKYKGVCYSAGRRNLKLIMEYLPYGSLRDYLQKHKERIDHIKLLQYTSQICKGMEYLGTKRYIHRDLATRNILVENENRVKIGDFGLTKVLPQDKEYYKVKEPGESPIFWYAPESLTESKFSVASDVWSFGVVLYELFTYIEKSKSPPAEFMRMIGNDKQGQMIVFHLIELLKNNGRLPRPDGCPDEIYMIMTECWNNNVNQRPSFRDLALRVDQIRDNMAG

JAK2 % Degradation in SET2 (10 μM compound)	JAK2 % Degradation in SET2 (5 μM compound)	Compound
C (C: ≥20% to <40% degradation)		COC(=O)N[C@@H]1CC[C@@H](n2c(=O)n(C)c3cnc4[nH]c(-c5ccc(C(=O)N6CCC(CC(=O)Nc7ccc8c(c7)CN(C7CCC(=O)NC7=O)C8=O)CC6)cc5)c(-c5ccc6c(cnn6C(C)C)c5)c4c32)C1 (stereo partly drawn) [Example 61, Methyl((1R,3R)-3-(7-(4-(4-(2-((2-(2,6-dioxopiperidin-3-yl)-1-oxoisoindolin-5-yl)amino)-2-oxoethyl)piperidine-1-carbonyl)phenyl)-8-(1-isopropyl-1H-indazol-5-yl)-3-methyl-2-oxo-3,6-dihydroimidazo[4,5-d]pyrrolo[2,3-b]pyridin-1(2H)-yl)cyclopentyl)carbamate]
C (C: ≥20% to <40% degradation)		COC(=O)N[C@@H]1CC[C@@H](n2c(=O)n(C)c3cnc4[nH]c(-c5ccc(C(=O)N6CCC(C(=O)Nc7ccc8c(c7)CN(C7CCC(=O)NC7=O)C8=O)CC6)cc5)c(-c5ccc6c(cnn6C(C)C)c5)c4c32)C1 (stereo partly drawn) [Example 60, Methyl((1R,3R)-3-(7-(4-(4-((2-(2,6-dioxopiperidin-3-yl)-1-oxoisoindolin-5-yl)carbamoyl)piperidine-1-carbonyl)phenyl)-8-(1-isopropyl-1H-indazol-5-yl)-3-methyl-2-oxo-3,6-dihydroimidazo[4,5-d]pyrrolo[2,3-b]pyridin-1(2H)-yl)cyclopentyl)carbamate]
	C (C: ≥20% to <40% degradation)	COC(=O)N[C@@H]1CC[C@@H](n2c(=O)n(C)c3cnc4[nH]c(-c5cnn(CC(=O)N6CCC(CN7CCN(c8ccc9c(c8)CN(C8CCC(=O)NC8=O)C9=O)CC7)CC6)c5)c(-c5ccc6c(cnn6C(C)C)c5)c4c32)C1 (stereo partly drawn) [Example 41, methyl ((1R,3R)-3-(7-(1-(2-(4-((4-(2-(2,6-dioxopiperidin-3-yl)-1-oxoisoindolin-5-yl)piperazin-1-yl)methyl)piperidin-1-yl)-2-oxoethyl)-1H-pyrazol-4-yl)-8-(1-isopropyl-1H-indazol-5-yl)-3-methyl-2-oxo-3,6-dihydroimidazo[4,5-d]pyrrolo[2,3-b]pyridin-1(2H)-yl)cyclopentyl) carbamate]
C (C: ≥20% to <40% degradation)		COC(=O)N[C@@H]1CC[C@@H](n2c(=O)n(C)c3cnc4[nH]c(-c5ccc(C(=O)NC[C@H]6CC[C@H](C(=O)Nc7ccc8c(c7)CN(C7CCC(=O)NC7=O)C8=O)CC6)c(F)c5)c(-c5ccc6c(cnn6C(C)C)c5)c4c32)C1 (stereo partly drawn) [Example 54, Methyl((1R,3R)-3-(7-(4-((((trans-)-4-((2-(2,6-dioxopiperidin-3-yl)-1-oxoisoindolin-5-yl)carbamoyl)cyclohexyl)methyl)carbamoyl)-3-fluorophenyl)-8-(1-isopropyl-1H-indazol-5-yl)-3-methyl-2-oxo-3,6-dihydroimidazo[4,5-d]pyrrolo[2,3-b]pyridin-1(2H)-yl)cyclopentyl)carbamate]
C (C: ≥20% to <40% degradation)		COC(=O)N[C@@H]1CC[C@@H](n2c(=O)n(C)c3cnc4[nH]c(-c5ccc(C(=O)NCCOCCOCC(=O)N[C@H](C(=O)N6C[C@H](O)C[C@H]6C(=O)NCc6ccc(-c7scnc7C)cc6)C(C)(C)C)c(F)c5)c(-c5ccc6c(cnn6C(C)C)c5)c4c32)C1 [Example 14, methyl ((1R,3R)-3-(7-(3-fluoro-4-((2-(2-(2-(((S)-1-((2S,4R)-4-hydroxy-2-((4-(4-methylthiazol-5-yl)benzyl)carbamoyl)pyrrolidin-1-yl)-3,3-dimethyl-1-oxobutan-2-yl)amino)-2-oxoethoxy)ethoxy)ethyl)carbamoyl)phenyl)-8-(1-isopropyl-1H-indazol-5-yl)-3-methyl-2-oxo-3,6-dihydroimidazo[4,5-d]pyrrolo[2,3-b]pyridin-1(2H)-yl)cyclopentyl) carbamate]
